Assay results as given in patent US8623996B2, “Cold active enzyme and method thereof” (University Putra Malaysia, priority 2010, dated 2014).
Square brackets hold non-standard residues; d marks the D form. Peptide text beside a SMILES is read from it. * marks the point of attachment. Sta = CC(C)C[C@H](N)[C@@H](O)CC(=O)O; Isovaleryl = CC(C)CC(=O)*

Legend:
[1] = tested on: isolate PI12; experiment: Antibiotic resistance of isolate PI12; type: cell-based, Leucosporodium antarcticum
Protocol: The bacterium was grown in nutrient broth and agar plates at 4° C. without shaking. Visible growth was observed after one week of incubation. […] The growth of isolate PI12 was inhibited at 25-37° C.
Extracellular enzyme activities, by isolate PI12 namely protease and lipase, were also observed.

[2] = tested on: LipPI12 lipase; experiment: Effect of metal ions on LipPI12 lipase activity; type: biochemical, Leucosporodium antarcticum PI12; conditions: 1 mM metal ion, 30 min at 20° C.
Protocol: (§1) Both the lipase and protease were treated with 1 mM of various metal ions for 30 mins prior to enzyme assays. Lipase activity ?; protease activity ? .
(§2) Various metal ions were tested by treating the purified enzyme with 1 mM of metal ions such as Na^+, Mg^2+, Ca^2+, Fe^2+, Mn^2+, K^+, Zn^2+ and Cu^2+ for 30 min at 20° C. It was subjected to lipase and protease assays after treatment. The effects of various metal ions were tested on the purified LipPI12 activity and the remaining activity was assayed using olive oil emulsion. […] This is an indication which explains the role of Ca ion which may work as a stabilizer to the molecule, as predicted in the LipPI12 3D model. Whereas, the beta roll motif, served as a metal binding site, presumably predicted for the Ca ions. […] Na^+ Mg^2+ and Fe^2+ have toxic effect to the enzyme. Other metal ions tested were CuCl2, ZnCl2 and MnCl2, which had obviously made the lipase to be slightly stable and with no elimination of activity relatively not less than 50% (FIG. 27).

[3] = tested on: LipPI12 protease; experiment: Effect of metal ions on LipPI12 protease activity; type: biochemical, Leucosporodium antarcticum PI12; conditions: 1 mM metal ion, 30 min at 20° C.
Protocol: as §1, §2
Protease LipPI12 looks more susceptible to all metal ions tested. […] The incubation with Na^+ and […] ions had done little effect as compared to the destabilizing manner shown by divalent ions of Cu^2+ and Mn^2+. […] A novel binding site for Zn ion may be involved in protease LipPI12. Structural elucidation is the best way to decipher the findings. The activation effect of Ca ion in both lipase and protease of LipPI12 is caused by the nature of the psychrophilic enzyme. Huge conformational movement will probably allow active residue rearrangement and can provide better accessibility of substrate, thus giving rise to a unique enzyme like LipPI12. This is achieved via local flexibility and mobility as the enzyme from psychrophiles evolves to withstand the extreme conditions, not only the coldness but also the low water content and substrate availability. Metal ions have been recognized to have effects on the activity of various enzymes. They bind the substrate and orient them properly for the reaction to occur. Besides mediating oxidation-reduction reactions, they can also electrostatically stabilize or shield negative charges. On the other hand, based on the correlation between the enzymes and metal ions, these enzymes could be classified into two types: Metalloenzymes and Metal-activated enzyme. In Metalloenzyme, metal ions such as Fe, Cu, Mn, Co are tightly bound ion pairs. While in the metal-activated enzymes, the metal ions such as Na, K, Mg, and Ca are loosely bound metal ions from the solution. Based on these facts, the protease LipPI12 is considered as a metal-activated enzyme.

[4] = tested on: LipPI12 lipase; experiment: Organic solvent tolerance of LipPI12 lipase; type: biochemical, Leucosporodium antarcticum PI12; conditions: 3 ml enzyme solution + 1 ml solvent, 20° C., 30 min
Protocol: (§3) Protease activity ?; Lipase activity ? .
(§4) Study On LipPI12 organic solvent stability was carried out in reaction mixture containing purified LipPI12 and various solvents. The mixture was incubated at 20° C. with shaking rates at 150 rpm for 30 min. Control reaction was done by mixing the enzyme with water. Relative activity of lipase was determined according Kwon and Rhee (1986) method. Whereby protease assay was done according to Brock et, al., (1982). The effects of various organic solvents on the stability of the cold active LipPI12 were studied. A mixture of 3 ml enzyme solution and 1 ml of an organic solvent was incubated at 20° C. with shaking, and the remaining activity was measured after 30 min of incubation.

[5] = tested on: LipPI12 lipase; experiment: Effect of inhibitors on LipPI12 lipase activity; type: biochemical, Leucosporodium antarcticum PI12; conditions: 1 mM inhibitor, 20° C., 30 min
Protocol: (§5) The final concentration of inhibitors was 1 mM. The LipPI12 lipase and protease were assayed with olive oil as substrate after incubation with inhibitors for 30 min.
(§6) Partial understanding of the enzyme catalysis involves the reaction with various inhibitors. […] Various inhibitors were tested at a final concentration of 1 mM (PMSF, EDTA and pepstatin). The purified enzyme was treated with various inhibitors at 20° C. for 30 min prior to measuring the residual activity colorimetrically.

[6] = tested on: LipPI12 protease; experiment: Effect of inhibitors on LipPI12 protease activity; type: biochemical, Leucosporodium antarcticum PI12; conditions: 1 mM inhibitor, 20° C., 30 min
Protocol: as §5, §6

[7] = tested on: LipPI12 protease; experiment: Effect of surfactants on LipPI12 protease activity; type: biochemical, Leucosporodium antarcticum PI12; conditions: 0.1% surfactant, 20° C., 30 min
Protocol: (§7) The purified LipPI12 lipase and protease were mixed with surfactants (final concentration of 0.1%, v/v) and was incubated at 20° C. for 30 min prior to enzymatic assays. Lipase activity ?; Protease activity ? .
(§8) Surfactants or surface active agents are the most important constituents in the formulation of detergent. Enzyme and surfactants form unique interactions that affect the function of enzyme, i.e. whether to stabilize or destabilize. […] Lipase and protease LipPI12 was treated with various surfactants at a concentration of […] at 20° C. for 30 min before being subjected to lipase and protease assays colorimetrically. The study on the effect of LipPI12 lipase and its protease on various surfactants was carried out using 0.1% of surfactant, namely from TWEEN™ 20-80, TRITON™ X-100, SDS and SLS. […] Remarkably, LipPI12 protease was activated in the presence of TWEEN™ 80 and SLS, with 30 and 70% enhancement, respectively. […] The incubation with SDS also seemed to affect LipPI12 protease catalytic activity, where it dropped to only 27% of its control activity.

[8] = tested on: LipPI12 protease; experiment: Organic solvent tolerance of LipPI12 protease; type: biochemical, Leucosporodium antarcticum PI12; conditions: 3 ml enzyme solution + 1 ml solvent, 20° C., 30 min
Protocol: as §3, §4

[9] = tested on: LipPI12 lipase; experiment: Substrate specificity of LipPI12 lipase, para-nitrophenyl esters; type: biochemical, Leucosporodium antarcticum PI12; conditions: versus butyrate (C4), caprylate (C8), laurate (12)
Protocol: Values in bracket represent the fatty acid carbon chain length.
(§9) Various triglycerides (triacetin, tributyrin, tricaprylin, triolein) p-nitrophenol esters (p-nitrophenylbutyrate, p-nitrophenylcaprylate, p-nitrophenyllaurate, p-nitrophenylpalmitate) and natural oils (olive oil, soy bean oil, corn oil, sun flower oil, rice brain oil, coconut and palm oil) were tested for the cold active LipPI12 lipase activity. It was assayed at 20° C. for 30 min colorimetrically. The capability of the LipPI12 to hydrolyze different carbon chain lengths of triglycerides was investigated. […] LipPI12 lipase substrate specificity towards medium chain length was also observed in natural oils. […] LipPI12 low efficiency or inability to catalyze such substrate was probably due to improper substrate and active coordination and limited substrate accessibility as a result of cis conformation of aliphatic chain when compared to the trans conformation which is much linear. Artificial substrate was also used in the form of esters, namely para-nitrophenyl (pNP) esters containing carbon chain ranging from C4 (butyrate) to C16 (palmitate). […] Certainly, LipPI12 broad substrate specificity, which posed a huge prospect in application and the understanding of mechanism, is important. Nonetheless, the profile of substrate is a crucial point, where accessibility determines substrate specificity. […]

[10] = tested on: LipPI12 lipase; experiment: Substrate specificity of LipPI12 lipase, pure triglycerides; type: biochemical, Leucosporodium antarcticum PI12; conditions: 20° C., 30 min, substrate 1:1 v/v
Protocol: Values in bracket represent the carbon chain length of each substrate. LipPI12 lipase was assayed with the pure triglycerides (1:1, v/v) as substrate.
as §9, with “important.” for “important. Nonetheless, the profile of substrate is a crucial point, where accessibility determines substrate specificity.”

[11] = tested on: LipPI12 lipase; experiment: Effect of surfactants on LipPI12 lipase activity; type: biochemical, Leucosporodium antarcticum PI12; conditions: 0.1% surfactant, 20° C., 30 min
Protocol: as §7, §8
Target sequence in this assay (as listed by the source): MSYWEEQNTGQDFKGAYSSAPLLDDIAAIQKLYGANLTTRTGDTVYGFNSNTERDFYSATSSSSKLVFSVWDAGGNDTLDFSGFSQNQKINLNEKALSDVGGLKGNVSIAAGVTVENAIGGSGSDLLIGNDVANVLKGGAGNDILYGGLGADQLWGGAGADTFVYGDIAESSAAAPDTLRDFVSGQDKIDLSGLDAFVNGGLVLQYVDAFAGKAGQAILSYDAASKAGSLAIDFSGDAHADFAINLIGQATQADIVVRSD

With `CC1(C)S[C@@H]2[C@H](NC(=O)[C@H](N)c3ccccc3)C(=O)N2[C@H]1C(=O)O` [Ampicilin] the “resistance of isolate PI12” value [1] was “resistance”.
In the case of `[Ca+2].[Cl-].[Cl-]` [CaCl2], the “effect of metal ion on lipase activity” value [2] is reported as “activator”, the “lipase activity as compared to the control” value ([2]; olive oil emulsion) is reported as 115% and the “protease relative activity as compared to the control” value (“protease relative activity” below) [3] is reported as about 100%.
`O=C(N[C@H](CO)[C@H](O)c1ccc([N+](=O)[O-])cc1)C(Cl)Cl` [Chloramphenicol] was tested, and the “resistance of isolate PI12” value [1] was “resistance”.
For `[Cl][Cu][Cl]` [CuCl2], the “effect of metal ion on protease activity” value [3] was “do not affect” and the “protease relative activity” value [3] was 4%.
`CCOCC` [Diethyleter] was tested, and the “effect of organic solvent on lipase” value [4] was “total elimination of activity”.
In the case of `O=C(O)CN(CCN(CC(=O)O)CC(=O)O)CC(=O)O` [EDTA, ethylene diamine tetraacetic acid], the “inhibition of lipase” value [5] is reported as “partially inhibited” and the “inhibition of protease (words)” value [6] is reported as “partially inhibited”.
`[Cl][Fe]([Cl])[Cl]` [FeCl3] was tested, and the “effect of metal ion on protease activity” value [3] was “do not affect”.
`[Fe+2]` [Fe^2+] was tested, and the “effect of metal ion on lipase activity” value [2] was “toxic effect” and the “protease relative activity” value [3] was about 100%.
`[K+]` [IC] was tested, and the “effect of metal ion on protease activity” value [3] was “little effect”.
For `[Cl-].[Cl-].[Mg+2]` [Mg^2+, MgCl2], the “effect of metal ion on lipase activity” value [2] was “toxic effect”, the “effect of metal ion on protease activity” value [3] was “activator” and the “protease relative activity” value [3] was about 100%.
With `[Cl][Mn][Cl]` [MnCl2] the “protease relative activity” value [3] was 40%.
In the case of `[Na+]` [Na^+], the “effect of metal ion on lipase activity” value [2] is reported as “toxic effect” and the “effect of metal ion on protease activity” value [3] is reported as “little effect”.
In the case of `O=S(=O)(F)Cc1ccccc1` [PMSF, phenylmethylsulphonyl fluoride], the “inhibition of lipase” value [5] is reported as “partially inhibited” and the “inhibition of protease (words)” value [6] is reported as “partially inhibited”.
For `CC(C)CC(=O)N[C@H](C(=O)N[C@H](C(=O)N[C@@H](CC(C)C)[C@@H](O)CC(=O)N[C@@H](C)C(=O)N[C@@H](CC(C)C)[C@@H](O)CC(=O)O)C(C)C)C(C)C` [Pepstatin] (Isovaleryl-VV[Sta]A[Sta]-OH), the “inhibition of protease (words)” value [6] was “drastically eliminated” and the “inhibition of protease (words)” value ([6]; listed as pepstatin) was “inhibited”.
`CCCCCCCCCCCCOS(=O)(=O)[O-].[Na+]` [SDS] was tested, and the “protease activity remaining, of control activity” value [7] was 27%.
`CCCCCCCCCCCCOS(=O)(=O)[O-].[Na+]` [SLS, Sodium lauryl sulphate] was tested, and the “enhancement of protease activity” value [7] was 70%.
With `[Cl-].[Cl-].[Zn+2]` [ZnCl2] the “effect of metal ion on protease activity” value [3] was “activator” and the “protease relative activity” value [3] was 170%.
`O=S(=O)([O-])[O-].[Zn+2]` [ZnSO4] was tested, and the “effect of metal ion on protease activity” value [3] was “do not affect”.
With `c1ccccc1` [benzene] the “effect of organic solvent on lipase” value [4] was “good stability”.
With `CCCCCCCCCC` [decane] the “effect of organic solvent on lipase” value [4] was “total elimination of activity”.
`CCCCCCCCCCCC` [dodecane] was tested, and the “effect of organic solvent on lipase” value [4] was “good stability”.
In the case of `CCCCCCCCCCCCCCCC` [hexadecane], the “effect of organic solvent on lipase” value [4] is reported as “good stability” and the “effect of organic solvent on protease” value [8] is reported as “tolerance”.
For `CCCCCC` [hexane], the “effect of organic solvent on lipase” value [4] was “total elimination of activity”.
With `CCCCCCCCCCCCCCCC(=O)Oc1ccc([N+](=O)[O-])cc1` [pNP palmitate, p-nitrophenylpalmitate] the “increment of activity relative to other pNP esters” value [9] was 60%.
For `CCCO` [propanol], the “lipase activity in solvent” value ([4]; control in water) was over 160%.
For `Cc1ccccc1` [toluene], the “decrease of lipase activity” value [4] was “more than 50%”.
In the case of `CCCCCCCCCCCC(=O)OCC(COC(=O)CCCCCCCCCCC)OC(=O)CCCCCCCCCCC` [trilaurin], the “relative activity, triglyceride as substrate” value [10] is reported as 100%.
For TRITON™ X-100, the “effect of surfactant on lipase activity” value [11] was “retains its activity” and the “effect of surfactant on protease activity” value [7] was “retain its activity”.
For TWEEN™ 40, the “effect of surfactant on lipase activity” value [11] was “retains its activity” and the “effect of surfactant on protease activity” value [7] was “retain its activity”.
For TWEEN™ 60, the “effect of surfactant on lipase activity” value [11] was “retains its activity” and the “effect of surfactant on protease activity” value [7] was “retain its activity”.
With TWEEN™ 80 the “enhancement of protease activity” value [7] was 30%.
With dimethylsulfonyl the “increase of lipase activity” value [4] was about 80% and the “effect of organic solvent on protease” value [8] was “tolerance”.
